Data from patent US20160175318A1, “COMPOSITIONS COMPRISING ANTIBACTERIAL AGENT AND TAZOBACTAM” (WOCKHARDT LIMITED, priority 2013, published 2016).
Like-named read-outs stand apart in the source and are kept apart here.

Columns and labels:
Type in all cases: cell-based
E. coli B-89 [1] = assay: MIC by agar dilution (CLSI) against highly resistant ESBL strain; settings: E. coli B-89
Protocol: (§1) The results on activity of cefepime and other cephalosporin antibacterial agents in combination with tazobactam against highly resistant ESBL strains are given Table 1. In a typical study, overnight grown bacterial cultures were diluted appropriately and inoculated on the agar media containing doubling dilutions of the antibiotic. Observation for growth or no growth was performed after 16-20 h of incubation at 35±2° C. in ambient air. The overall procedure was performed as per Clinical and Laboratory Standards Institute (CLSI) recommendations. This experimental was followed for Examples 2-4 and 6 below (Table 2-4 and 7).

E. coli 7MP [2] = assay: as above; settings: E. coli 7MP
Protocol: as §1

K. pneumoniae M150 = assay: as above; settings: Klebsiella pneumoniae, M150, K. pneumoniae M150, read-out: MIC
Protocol: as §1

E. coli M50 [3] = assay: as above
Protocol: as §1

E. cloacae M-20 = assay: as above; settings: E. cloacae M-20
Protocol: as §1

E. coli B-89 [4] = assay: Quantitative drug diffusion assay (disc, zone of inhibition, CLSI); set-up: key to Interpretation of zone as per CLSI recommendations: R: Resistant; I: Intermediate; S: Sensitive (Interpretation as per CLSI recommendations, 2010)
Excerpt: (§2) Activity of cefepime in combination with tazobactam and various penicillins in combination with respective ESBL inhibitors was also investigated against highly resistant ESBL strains in quantitative drug diffusion assay performed as per CLSI recommendations (Clinical and Laboratory Standards Institute (CLSI), performance Standards for Antimicrobial Susceptibility Testing, 20th Informational Supplement, M 100-S20, Volume 30, No. 1, 2010).
(§3) In a typical study, overnight grown bacterial cultures after appropriate dilution were seed inoculated in the molten, cooled agar media and plates poured. Antibiotics containing 6 mm diameter discs were place on the top of the agar surface. Zone of inhibition based observation was performed after 16-18 h of incubation at 35±2° C. in ambient air. The overall procedure was performed as per CLSI recommendations (Table 5 and 6). These assays are routinely used in determining possibility of treating a particular infection using antibiotic and/or their combinations. For example, in case of treating an infection caused by E. coli (M138) using Augmentin® [commercially available combination: Amoxicillin (500 mg)+Clavulanic acid (125 mg)], the zone inhibition values need to be in the sensitive (S) range.

E. coli 7MP [5] = assay: as above; set-up: key to Interpretation of zone as per CLSI recommendations: R: Resistant; I: Intermediate; S: Sensitive (Interpretation as per CLSI recommendations, 2010)
Excerpt: as §2, §3

E. coli M50 [6] = assay: as above; set-up: key to Interpretation of zone as per CLSI recommendations: R: Resistant; I: Intermediate; S: Sensitive (Interpretation as per CLSI recommendations, 2010)
Excerpt: as §2, §3

E. coli B-123 = assay: as above; set-up: key to Interpretation of zone as per CLSI recommendations: R: Resistant; I: Intermediate; S: Sensitive (Interpretation as per CLSI recommendations, 2010)
Excerpt: as §2, §3

E. coli S-112 = assay: as above; set-up: key to Interpretation of zone as per CLSI recommendations: R: Resistant; I: Intermediate; S: Sensitive (Interpretation as per CLSI recommendations, 2010)
Excerpt: as §2, §3

E. coli M-138 = assay: as above; set-up: key to Interpretation of zone as per CLSI recommendations: R: Resistant; I: Intermediate; S: Sensitive (Interpretation as per CLSI recommendations, 2010)
Excerpt: as §2, §3

[7] = ESBL inhibitor 0 mcg (antibiotic alone)
[8] = Table 5, with Clavulanic acid 10 mcg
[9] = Table 6, with Clavulanic acid 10 mcg

MIC (E. coli B-89 [1]; with Tazobactam 4 mcg): >64 µg/mL
MIC (E. coli B-89 [1]; with Tazobactam 8 mcg): >64 µg/mL
MIC (E. coli B-89 [1]; Escherichia coli, B89, 20 h, Tazobactam 0 mcg (antibiotic alone), read-out: MIC): > 128 µg/mL
MIC (E. coli 7MP [2]; with Tazobactam 4 mcg): >64 µg/mL
MIC (E. coli 7MP [2]; with Tazobactam 8 mcg): >64 µg/mL
MIC (E. coli 7MP [2]; Escherichia coli, 7MP, 20 h, Tazobactam 0 mcg (antibiotic alone), read-out: MIC): > 128 µg/mL
MIC (K. pneumoniae M150; Tazobactam 0 mcg (antibiotic alone)): > 128 µg/mL
MIC (K. pneumoniae M150; with Tazobactam 4 mcg): > 64 µg/mL
MIC (K. pneumoniae M150; with Tazobactam 8 mcg): > 64 µg/mL
MIC (E. coli M50 [3]; Escherichia coli, 20 h, Tazobactam 0 mcg (antibiotic alone), read-out: MIC): > 128 µg/mL
MIC (E. coli M50 [3]; with Tazobactam 4 mcg): >64 µg/mL
MIC (E. coli M50 [3]; with Tazobactam 8 mcg): >64 µg/mL
MIC (E. cloacae M-20; with Tazobactam 4 mcg): >64 µg/mL
MIC (E. cloacae M-20; with Tazobactam 8 mcg): >64 µg/mL
MIC (E. cloacae M-20; Enterobacter cloacae, M20, 20 h, Tazobactam 0 mcg (antibiotic alone), read-out: MIC): > 128 µg/mL
SMILES: CC1(C)S[C@@H]2[C@H](NC(=O)[C@H](C(=O)O)c3ccsc3)C(=O)N2[C@H]1C(=O)O [Ticarcillin]
Zone of Inhibition (E. coli B-89 [4]; [7]): Nil
Interpretation of zone as per CLSI recommendations (E. coli B-89 [4]; Table 5, ESBL inhibitor 0 mcg): (R)
Interpretation of zone as per CLSI recommendations (E. coli B-89 [4]; [8]): (R)
Interpretation of zone as per CLSI recommendations (E. coli B-89 [4]; Table 6, ESBL inhibitor 0 mcg): (R)
Interpretation of zone as per CLSI recommendations (E. coli B-89 [4]; [9]): (R)
Zone of Inhibition (E. coli B-89 [4]; with Clavulanic acid 10 mcg): 10 mm
Zone of Inhibition (E. coli 7MP [5]; [7]): Nil
Interpretation of zone as per CLSI recommendations (E. coli 7MP [5]; Table 5, ESBL inhibitor 0 mcg): (R)
Interpretation of zone as per CLSI recommendations (E. coli 7MP [5]; [8]): (R)
Interpretation of zone as per CLSI recommendations (E. coli 7MP [5]; Table 6, ESBL inhibitor 0 mcg): (R)
Interpretation of zone as per CLSI recommendations (E. coli 7MP [5]; [9]): (R)
Zone of Inhibition (E. coli 7MP [5]; with Clavulanic acid 10 mcg): Nil
Zone of Inhibition (E. coli M50 [6]; [7]): 9 mm
Interpretation of zone as per CLSI recommendations (E. coli M50 [6]; Table 5, ESBL inhibitor 0 mcg): (R)
Interpretation of zone as per CLSI recommendations (E. coli M50 [6]; [8]): (R)
Interpretation of zone as per CLSI recommendations (E. coli M50 [6]; Table 6, ESBL inhibitor 0 mcg): (R)
Interpretation of zone as per CLSI recommendations (E. coli M50 [6]; [9]): (R)
Zone of Inhibition (E. coli M50 [6]; with Clavulanic acid 10 mcg): 11.5 mm
Zone of Inhibition (E. coli B-123; [7]): Nil
Interpretation of zone as per CLSI recommendations (E. coli B-123; Table 5, ESBL inhibitor 0 mcg): (R)
Interpretation of zone as per CLSI recommendations (E. coli B-123; [8]): (R)
Interpretation of zone as per CLSI recommendations (E. coli B-123; Table 6, ESBL inhibitor 0 mcg): (R)
Interpretation of zone as per CLSI recommendations (E. coli B-123; [9]): (R)
Zone of Inhibition (E. coli B-123; with Clavulanic acid 10 mcg): 13.5 mm
Zone of Inhibition (E. coli S-112; [7]): Nil
Interpretation of zone as per CLSI recommendations (E. coli S-112; Table 5, ESBL inhibitor 0 mcg): (R)
Interpretation of zone as per CLSI recommendations (E. coli S-112; [8]): (R)
Interpretation of zone as per CLSI recommendations (E. coli S-112; Table 6, ESBL inhibitor 0 mcg): (R)
Interpretation of zone as per CLSI recommendations (E. coli S-112; [9]): (R)
Zone of Inhibition (E. coli S-112; with Clavulanic acid 10 mcg): 10 mm
Zone of Inhibition (E. coli M-138; [7]): Nil
Interpretation of zone as per CLSI recommendations (E. coli M-138; Table 5, ESBL inhibitor 0 mcg): (R)
Interpretation of zone as per CLSI recommendations (E. coli M-138; [8]): (R)
Interpretation of zone as per CLSI recommendations (E. coli M-138; Table 6, ESBL inhibitor 0 mcg): (R)
Interpretation of zone as per CLSI recommendations (E. coli M-138; [9]): (R)
Zone of Inhibition (E. coli M-138; with Clavulanic acid 10 mcg): 10 mm
